Measurements reported in patent US9447086B2, “6-amino acid heteroaryldihydropyrimidines for the treatment and prophylaxis of hepatitis B virus infection” (priority 2012, dated 2016).
Values after ≈ are worked out from the molar mass of the structure shown.

Assays:
[1] = Metabolic stability study in human microsome; type: in vitro ADME
Outline: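 Human liver microsomes (0.5 mg/mL) with 1 μM compound in 100 mM phosphate pH 7.4 at 37 °C, started with 1 mM NADPH or an NADPH-regenerating system. Samples taken at 0, 3, 6, 9, 15 and 30 min, quenched in methanol. Parent remaining measured by LC-MS/MS; no-cofactor controls included.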

[2] = Lyophilisation solubility assay (Lysa); type: physicochemical; settings: phosphate buffer, pH 6.5, aqueous buffer, thermodynamic from solid
Outline: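 Duplicate samples from 10 mM DMSO stocks are dried, redissolved in 0.05 M phosphate buffer pH 6.5, stirred 1 h, shaken 2 h and left overnight. Filtrate and its 1/10 dilution are quantified by direct UV or HPLC-UV, giving solubility in μg/mL.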

HBV [3] = experiment: Anti-HBV activity in vitro in HepG2.2.15 cells (extracellular HBV DNA by qPCR); type: cell-based, Hepatitis B virus; settings: Hepatitis B virus; HepG2.2.15 cells; in-house data; read-out: EC50
Outline: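 HepG2.2.15 cells, which constitutively produce HBV, were seeded overnight and then treated for 5 days with half-log serially diluted compounds at 0.5% final DMSO. Extracellular HBV DNA in culture supernatant was extracted and quantified by qPCR.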

[4] = Cytotoxicity (CC50) in HepDE19 cells, CCK-8 cell viability; type: cell-based; settings: human, HepDE19 cells; read-out: CC50
Outline: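 HBV-transfected HepG2-derived HepDE19 cells grown in DMEM-F12 with 10% FBS and G418. Viability read five days after treatment by CCK-8, 2 h at 37 °C, absorbance at 450 and 630 nm.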

HBV [5] = experiment: Selectivity index (CC50 value/EC50 value); type: cell-based, Hepatitis B virus
Outline: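 Ratio of CC50 to EC50, measuring antiviral activity against HBV relative to cytotoxicity in vitro; higher values indicate greater separation between viral inhibition and cell death.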

| SMILES | Human Hepatic Clearance [1] | solubility thermodynamic [2] | EC50 (HBV [3]) | CC50 at 5 days [4] | Selectivity index (CC50/EC50) (HBV [5]) |
| --- | --- | --- | --- | --- | --- |
| COC(=O)C1=C(CN2CCOC[C@H]2C(=O)O)NC(c2ncoc2C)=N[C@H]1c1ccc(F)cc1Br [Example 65, (S)-4-[(R)-6-(2-Bromo-4-fluoro-phenyl)-5-methoxycarbonyl-2-(5-methyl-oxazol-4-yl)-3,6-dihydro-pyrimidin-4-ylmethyl]-morpholine-3-carboxylic acid] | 1.67 mL/min/kg | > 678 µg/mL | 0.0076 µM | > 100 µM | >13157 |
| COC(=O)C1=C(CN2CCOC[C@H]2C(=O)O)NC(c2nccs2)=N[C@H]1c1ccc(Cl)cc1F [Example 75, (S)-4-[(R)-6-(4-Chloro-2-fluoro-phenyl)-5-methoxycarbonyl-2-thiazol-2-yl-3,6-dihydro-pyrimidin-4-ylmethyl]-morpholine-3-carboxylic acid] | 0 mL/min/kg | > 632 µg/mL | 0.018 µM | > 100 µM | 5556 |
| CCOC(=O)C1=C(CN2CCOC[C@H]2C(=O)O)NC(c2nccn2C)=N[C@H]1c1cccc(F)c1Cl [Example 97, (S)-4-[(R)-6-(2-Chloro-3-fluoro-phenyl)-5-ethoxycarbonyl-2-(1-methyl-1H-imidazol-2-yl)-3,6-dihydro-pyrimidin-4-ylmethyl]-morpholine-3-carboxylic acid] | 1.63 mL/min/kg | > 640 µg/mL | 0.005 µM | 44 µM | 8800 |
| CCOC(=O)C1=C(CN2CC(F)(F)C[C@H]2C(=O)O)NC(c2nccs2)=N[C@H]1c1cccc(F)c1F [Example 50, (R)-6-((S)-2-Carboxy-4,4-difluoro-pyrrolidin-1-ylmethyl)-4-(2,3-difluoro-phenyl)-2-thiazol-2-yl-1,4-dihydro-pyrimidine-5-carboxylic acid ethyl ester] | 0 mL/min/kg | > 580 µg/mL | 0.014 µM | 26 µM | 1905 |
| CCOC(=O)C1=C(CN2CC(F)(F)CC[C@@H]2C(=O)O)NC(c2nccs2)=N[C@H]1c1ccc(F)cc1Br [Example 108, (R)-4-(2-Bromo-4-fluoro-phenyl)-6-((R)-2-carboxy-5,5-difluoro-piperidin-1-ylmethyl)-2-thiazol-2-yl-1,4-dihydro-pyrimidine-5-carboxylic acid ethyl ester] | 4.88 mL/min/kg | 410 µg/mL (≈ 698 µM) | 0.018 µM | 33 µM | 1784 |
| COC(=O)C1=C(CN2CCO[C@H](C)[C@H]2C(=O)O)NC(c2nccs2)=N[C@H]1c1ccc(F)c(F)c1 [Example 113, (2R,3S)-4-[(S)-6-(3,4-Difluoro-phenyl)-5-methoxycarbonyl-2-thiazol-2-yl-3,6-dihydro-pyrimidin-4-ylmethyl]-2-methyl-morpholine-3-carboxylic acid] | 0 mL/min/kg | > 615 µg/mL | 0.016 µM | > 100 µM | >6061 |
| CCOC(=O)C1=C(CN2CCOC[C@H]2C(=O)O)NC(c2nccs2)=N[C@H]1c1ccc(Cl)c(F)c1 [Example 83, (S)-4-[(S)-6-(4-Chloro-3-fluoro-phenyl)-5-ethoxycarbonyl-2-thiazol-2-yl-3,6-dihydro-pyrimidin-4-ylmethyl]-morpholine-3-carboxylic acid] | 1.77 mL/min/kg | > 652 µg/mL | 0.0015 µM | 25 µM | 16440 |
| CCOC(=O)C1=C(CN2CCOC[C@H]2C(=O)O)NC(c2nccn2C)=N[C@H]1c1ccc(F)cc1Cl [Example 35, (S)-4-[(R)-6-(2-Chloro-4-fluoro-phenyl)-5-ethoxycarbonyl-2-(1-methyl-1H-imidazol-2-yl)-3,6-dihydro-pyrimidin-4-ylmethyl]-morpholine-3-carboxylic acid] | 8.86 mL/min/kg | > 599 µg/mL | 0.0077 µM | > 100 µM | 12987 |
